Laboratory results reported in patent US20220160814A1, “COMPOSITIONS AND METHODS FOR PROTECTING TYPE 2 ALVEOLAR EPITHELIAL CELLS (AEC2)” (Lung Therapeutics, Inc., priority 2019, published 2022).
Where no end group is shown, it is not given here.

Tested on: IPF fibroblasts
Type: cell-based
Method: FIGS. 1A-B. CSP7 deactivates IPF lung fibroblasts. IPF fibroblasts were treated with control peptide, TGFβ (a positive control to stimulate collagen), or a single dose of CSP7 and assayed 24 h later using ELISA against human collagen 1α1 (FIG. 1A). A cell titer glo assay was used to label live IPF fibroblasts grown on 96 well plates (FIG. 1B).
A cell titer glo assay (Promega, G7570) was used to label live IPF fibroblasts grown on 96 well plates. IPF fibroblasts have a senescent phenotype, and as such they release factors that contribute to aberrant wound healing. Inducing apoptosis in IPF fibroblasts may […]. Luminescence was read in a plate reader. […] Luminescence is proportional to living cell number, i.e., a decrease in luminescence correlates with cell death.

## FTTFTVT [CSP7, FTTFTVT]
  apoptosis / live cell number (luminescence): did not stimulate apoptosis
